One data set deals with R248W mutant p53 peptide (Homo sapiens, UniProt P04637, R248W). Nature of the data set: Thioflavin T (ThT) assay, inhibition of R248W peptide aggregation. The class given is biochemical. The settings on record: 1:1 ratio to R248W peptide, 37° C., 10 hours. As to the method: (§1) This fluorescence can be monitored overtime to estimate the increase in beta-sheet structure of incubated peptides, indicating amyloid formation. […] 50 μM ThT was incubated at 37° C. with varying concentrations of peptides and inhibitors to estimate both the aggregation propensity of mutant peptides and the abrogation of aggregation brought about by inhibitor treatment. All samples were sonicated, including the ThT solution, prior to each addition of peptides to ensure the obtainment of clear sigmoidal curves. Fluorescence in transparent-bottom 96-well sample plates was monitored by the cell plate reader Synergy H1 (BioTek).
To test the inhibition efficacy of these peptides, they were subjected to a ThT assay whereby a fixed concentration of R248W was treated with varying concentrations of the respective inhibitor peptide in the presence of ThT dye and buffer. […] It is hypothesized that this effect is due to the relative hydrophobicity of the PAS sequence (FFLIPKG) (FIG. 4B).
10 compounds based on the oligopyridylamide molecular scaffolds have been tested on mutant p53 aggregation models. A ThT assay was used to test the inhibition capability of each compound at a 1:1 ratio to the R248W mutant peptide.

For data set [1], the system named is MCF-7 cells (wild-type p53). Nature of the data set: MTS cell viability in MCF-7 cells. Type of data set: cell-based. The settings on record: 5 and 10 μM, 24 hours, serum-free media. As to the method:
(§2) MTS assays were performed with Promega CellTiter One MTS solution according to protocol. MIA PaCa-2 cells were seeded at 2,000 cells/well, MCF-7 at 4,000 cells/well, COS-7 at 5,000 cells/well and HeLa at 3,000 cells/well. These values were individually optimized for the assay prior to experimentation. All cells were incubated for 24 hours to allow proper adherence to the well. On treatment day, wells were washed with warm PBS and media was replaced with a serum-free version. If treatment peptides were purified from crude form, they were also filtered using a 0.2 µm filter before introduction to cells. On MTS reading day, media was changed again (serum-free) and 20 μL of MTS was added to each 100 μL well. Cells were incubated at 37° C. for 2 hours before reading absorbance at 490 nm using Synergy H1 (BioTek) equipped with Gen5 software. Background absorbance from control wells was quantified and subtracted from obtained experimental absorbance values.
(§3) It has been shown that the ADH compounds have no toxic effect on N2a cells, which carry wild-type p53. Their effect on other wild-type p53 cell lines: MCF-7 and COS-7 was further investigated. Cells were incubated with ADH compounds 17, 27, 40, 41 and 46 for 24 hours at 5 and 10 μM in serum-free media before determining cell viability via MTS (FIG. 2).

In data set [2] the test system is COS-7 cells (wild-type p53). Kind of data set: MTS cell viability in COS-7 cells. The class given is cell-based. The settings on record: 5 and 10 μM, 24 hours, serum-free media. The method, then: as §2, §3
Data set [3] addresses R248W mutant p53 peptide aggregates (Homo sapiens, UniProt P04637, R248W). Kind of data set: Multi-step ThT assay, abrogation of pre-formed R248W aggregates. The class given is biochemical. The settings on record: 50 μM R248W incubated 35 minutes at 37° C., then equimolar ADH compound. The method, then: as §1
Accordingly, a multi-step ThT assay was designed that would evaluate the ability of an inhibitor to abrogate aggregation at different stages of amyloid formation. Based on the sigmoidal curve produced in ThT assays of the R248W peptide, 3 time points were selected to introduce the inhibitor to mutant p53 aggregates. The first would occur at 0 mins, where no R248W aggregates would have been previously formed. The second time point would be approximately 30 mins after aggregation begins, during the exponential increase in fluorescence of the R248W ThT sigmoidal curve. The last time point would be during the plateau phase of the curve at approximately 5 hours after initiation of the assay, whereby aggregates reach an equilibrium phase and stabilize in solution.
In order to target p53 aggregation in the cellular environment, the ADH compounds according to the invention would need to bind and abrogate pre-formed p53 aggregates, as well as prevent additional aggregation. Inhibition of pre-formed aggregates would be a crucial feature of therapeutics that successfully target mutant p53 aggregation in cancer. Using the multi-step thioflavin T assay, where the inhibitor is added to R248W at either elongation or the plateau phases of amyloid formation, 50 μM of the R248W peptide was incubated at 37° C. for 35 minutes before adding an equimolar ratio of the ADH compound (FIG. 1).

For data set [4], the system named is MIA PaCa-2 cells (R248W p53 mutant). Nature of the data set: MTS cell viability assay in MIA PaCa-2 cells. Type of data set: cell-based. The settings on record: 5 and 10 μM, 24 and 48 hours, serum-free media. As to the method:
MIA PaCa-2 (CRL-1420) cells, which contain the R248W p53 contact mutant, were obtained from ATCC and cultured in ATCC-formulated Dulbecco's Modified Eagle's Medium supplemented with 10% fetal bovine serum (FBS), 2.5% horse serum, 4% 200 mM L-glutamine and 1% penicillin/streptomycin. A separate stock of serum-free medium was kept for cell viability assays. Cells were split at a 1:3 ratio 2-3 times a week and maintained at 80% confluence and >85% viability. Viability was regularly measured through Trypan Blue dilution correction during cell counting. Cell cultures were stored at 37° C. in T75 coated flasks and kept under 5% CO2.
MTS assays were performed with Promega CellTiter One MTS solution according to protocol. MIA PaCa-2 Cells were seeded at 2,000 cells/well and were incubated for 24 hours to allow proper adherence to the well. On treatment day, wells were washed with warm PBS and media was replaced with a serum-free version. If treatment peptides were purified from crude form, they were also filtered using a 0.2 µm filter before introduction to cells. On MTS reading day, media was changed again (serum-free) and 20 μL of MTS was added to each 100 μL well. Cells were incubated at 37° C. for 2 hours before reading absorbance at 490 nm using Synergy H1 (BioTek) equipped with Gen5 software.
as §2
The two classes of designed peptide inhibitors have been introduced to a cancer cell-line that harbors the R248W p53 mutant, MIA PaCa-29. It has been hypothesized that upon co-localization of the inhibitors with mutant p53, mutant p53 aggregates will be abrogated, resulting in the release of wild-type p53 from cellular inclusions and, eventually, the induction of apoptosis. The 4 designed peptides were introduced to MIA PaCa-2 cells at 5 and 10 μM for 24 and 48 hour incubation periods. MTS assay was used to assess cell viability after treatment, whereby the bio-reduction of the MTS tetrazolium compound results in detectable color change that is proportional to the number of viable cells left in a sample (see Example 1).
MIA PaCa-2 cells were incubated with ADH compounds 17, 27, 31, 37, 39, 40, 41, 45, 46, and 52 (5 and 10 μM) for 24 and 48 hours. Cell viability was determined using the MTS assay.
A general note: Tetrazolium dyes change colour on reduction, which living cells bring about.

For a further data set, the system named is HeLa cells. Nature of the data set: MTS cell viability in HeLa cells. Type of data set: cell-based. The settings on record: 5 or 10 μM, 24 hours, serum-free media. The method, then:
as §2
It has been hypothesized that the ADH compounds may bind to wild-type p53 in a manner that preserves its main function, yet disrupts other protein-protein interactions in the cellular environment. HeLa cells are known to have very low p53 expression levels, which is attributed to the expression of the HPV-E6 protein. E6 proteins target p53 for proteasomal degradation via the ubiquitin pathway by binding to p53's core domain (residues 94-292) and C-terminus. Because it has been hypothesized that the effective ADH compounds (40, 41, and 46) target the p53 DNA-binding domain located in its core region, the compounds may prevent E6 binding, leading to p53 accumulation and eventually apoptosis. […] Since ReACp53 is a sequence-specific peptide that targets the p53 DNA-binding domain, it may also prevent E6 binding through a similar mechanism.

Entries after “also recorded” stand apart in the source; their conditions may differ. Where no end group is shown, it is not given here.

As to `COC(=O)c1ccc(NC(=O)c2ccc(NC(=O)c3ccc(NC(=O)c4ccc([N+](=O)[O-])c(OCC(C)C)n4)c(OCc4ccccc4)n3)c(OCC(=O)O)n2)c(OCC(=O)O)n1` [ADH-31], the “inhibition of R248W mutant p53 aggregation by ADH compounds (ThT fluorescence)” value (shortened to “inhibition”) on R248W mutant p53 peptide was “inhibit mutant p53 aggregation with varying levels of effectiveness”.
Take `COC(=O)c1ccc(NC(=O)c2ccc(NC(=O)c3ccc([N+](=O)[O-])c(OCc4ccccc4)n3)c(OCC(=O)O)n2)c(OCC(=O)O)n1` [ADH-27]: the “toxicity in MCF-7 cells (MTS)” value in data set [1] is “No significant toxicity; also recorded: do not induce significant toxicity”. Moreover, the “toxicity in COS-7 cells (MTS)” value in data set [2] is “No significant toxicity; also recorded: do not induce significant toxicity”.
In the case of `COC(=O)c1ccc(NC(=O)c2ccc(NC(=O)c3ccc([N+](=O)[O-])c(OC(C)C)n3)c(OCc3ccccc3)n2)c(OCCCN)n1` [ADH-39], the “inhibition” value on R248W mutant p53 peptide was “inhibit mutant p53 aggregation with varying levels of effectiveness”.
Consider `COC(=O)c1ccc(NC(=O)c2ccc(NC(=O)c3ccc([N+](=O)[O-])c(OCC(C)C)n3)c(OCCCN)n2)c(OCCCN)n1` [ADH-46], for which, on R248W mutant p53 peptide, the “inhibition” value is recorded as “inhibit mutant p53 aggregation with varying levels of effectiveness”. The “abrogation of R248W aggregates at the elongation phase” value in data set [3] was “abrogate aggregation at the elongation phase; also recorded: able to target and abrogate aggregates at the elongation phase”. Further, in data set [4], the “effect of ADH compounds on MIA PaCa-2 cell viability (MTS)” value (from here on “effect of ADH compounds”) is “highly significant toxicity; also recorded: extremely significant effect on cell viability”. The “toxicity in MCF-7 cells (MTS)” value in data set [1] was “No significant toxicity; also recorded: do not induce significant toxicity”. For the same compound, the “toxicity in COS-7 cells (MTS)” value in data set [2] was “No significant toxicity; also recorded: do not induce significant toxicity”. In addition, the “toxicity in HeLa cells (MTS)” value in the data set on HeLa cells is reported as “Significant toxicity; also recorded: significantly toxic”.
Consider `COC(=O)c1ccc(NC(=O)c2ccc(NC(=O)c3ccc([N+](=O)[O-])c(OCCCN)n3)c(OCc3ccccc3)n2)c(OCCCN)n1` [ADH-37], for which the “inhibition” value on R248W mutant p53 peptide is “inhibit mutant p53 aggregation with varying levels of effectiveness”.
As for `CCCCOc1nc(C(=O)Nc2ccc(C(=O)Nc3ccc(C(=O)OC)nc3OCCCN)nc2OCCCN)ccc1[N+](=O)[O-]` [ADH-40], the “inhibition” value on R248W mutant p53 peptide is “inhibit mutant p53 aggregation with varying levels of effectiveness”. In addition, the “abrogation of R248W aggregates at the elongation phase” value in data set [3] was “abrogate aggregation at the elongation phase; also recorded: able to target and abrogate aggregates at the elongation phase”. For the same compound, in data set [4], the “effect of ADH compounds” value is reported as “highly significant toxicity; also recorded: extremely significant effect on cell viability”. Further, the “toxicity in MCF-7 cells (MTS)” value in data set [1] was “No significant toxicity; also recorded: do not induce significant toxicity”. For the same compound, the “toxicity in COS-7 cells (MTS)” value in data set [2] was “No significant toxicity; also recorded: do not induce significant toxicity”. For the same compound, in the data set with HeLa cells, the “toxicity in HeLa cells (MTS)” value is “Significant toxicity; also recorded: significantly toxic”.
With “ReACp53: recently developed peptide that targets p53 aggregation, oligoarginine tag, (image prefix) RPILTRITLE (also: oligoarginine tag) [reference compound]”, the “cytotoxicity of peptides in MIA PaCa-2 cells (MTS)” value in data set [4] is reported as “induce cell death; also recorded: significantly cytotoxic”. The “toxicity in MCF-7 cells (MTS)” value in data set [1] is recorded as “No significant toxicity; also recorded: does not appear to induce toxicity”. Moreover, the “toxicity in COS-7 cells (MTS)” value in data set [2] is reported as “No significant toxicity; also recorded: does not appear to induce toxicity”. In the data set with HeLa cells, the “toxicity in HeLa cells (MTS)” value is “induce significant toxicity; also recorded: significantly toxic”.
For `COC(=O)c1ccc(NC(=O)c2ccc(NC(=O)c3ccc([N+](=O)[O-])c(OCC(=O)O)n3)c(OCc3ccccc3)n2)c(OCC(=O)O)n1` [ADH-17], in data set [4], the “effect of ADH compounds” value was “non-toxic effects”. Also, the “toxicity in MCF-7 cells (MTS)” value in data set [1] was “No significant toxicity; also recorded: do not induce significant toxicity”. The “toxicity in COS-7 cells (MTS)” value in data set [2] was “No significant toxicity; also recorded: do not induce significant toxicity”.

Values taken from patent US10500197B2, “Use of oligopyridylamides to inhibit mutant p53 amyloid formation and restore its tumor suppressor function” (New York University, priority 2017, dated 2019).
